Literature values, collected in patent US4361545A (Rowell Laboratories, Inc., priority 1981, dated 1982).

**Q.** For `Cn1c(=O)c2[nH]cnc2n(C)c1=O` [theophylline], which solubility is on record?
**A.** The solubility was “low to moderate solubility”.
